Calls of active or inactive are those of the source.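 Rule for the calls: active = mean IC50 for reducing PEG3 promoter reporter signal at or below a set limit, with IC50 above the limit in both counter screens; inactive = the rest, including counter screen hits.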

Experiment [1] is described as follows: inhibition of PEG-3 promoter-driven reporter – cell-based, HeLa, luciferase, CREF/GAPDH counter-screen panel, dose response (AID 624167). The conditions noted are these: CREF/GAPDH counter-screens; GAPDH; mean of runs. Background: Counterscreens check selectivity or assay interference.
A further experiment has as its system GAPDH. The description is as above. The conditions noted are these: CREF/GAPDH counter-screens.
Experiment [2] has as its target PEG-3 (UniProt Q6IN02). The description is as above. The settings on record: HeLa PEG-Prom luciferase reporter, overnight, CREF/GAPDH counter-screens, mean of runs. Background: Reporter assays use an easily measured gene product as a stand-in for the process of interest.
For experiment [3], the system named is PEG-3. Described as above. The settings on record: HeLa PEG-Prom luciferase reporter, overnight, CREF/GAPDH counter-screens.
The subject of another experiment is Rat fibroblasts (CREF). Described as above. The settings on record: CREF/GAPDH counter-screens.
The mark [4] stands for this setting: run 1, dose range 1, individual replicate IC50 per panel.
Where [5] appears, read: run 2, dose range 1, individual replicate IC50 per panel.

PEG-3 (UniProt Q6IN02), sequence (Q6IN02 whole entry, looked up): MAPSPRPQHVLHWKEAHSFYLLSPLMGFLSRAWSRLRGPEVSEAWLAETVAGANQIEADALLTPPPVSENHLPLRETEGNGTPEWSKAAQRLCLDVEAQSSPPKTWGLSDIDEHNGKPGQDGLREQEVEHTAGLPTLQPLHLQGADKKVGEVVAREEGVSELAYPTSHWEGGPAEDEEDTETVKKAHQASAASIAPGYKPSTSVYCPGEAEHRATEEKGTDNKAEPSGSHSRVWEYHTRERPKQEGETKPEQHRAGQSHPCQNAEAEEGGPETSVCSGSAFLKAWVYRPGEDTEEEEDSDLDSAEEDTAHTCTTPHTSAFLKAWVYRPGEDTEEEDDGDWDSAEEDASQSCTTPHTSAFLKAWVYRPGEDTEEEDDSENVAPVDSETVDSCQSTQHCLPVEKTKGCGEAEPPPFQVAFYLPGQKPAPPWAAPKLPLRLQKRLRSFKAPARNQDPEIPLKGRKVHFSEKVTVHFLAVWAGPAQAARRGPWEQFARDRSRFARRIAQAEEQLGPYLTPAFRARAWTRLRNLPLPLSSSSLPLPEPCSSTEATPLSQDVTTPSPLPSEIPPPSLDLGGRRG

With `COC(=O)C1C=CC(OC2OC(COC(C)=O)C(OC(C)=O)C(OC(C)=O)C2OC(C)=O)n2c(=O)n(-c3ccccc3)c(=O)n21` (stereo not drawn), the IC50 in experiment [1] was 18.5 µM; with GAPDH (setting [4]) it was 19.4 µM; in the experiment on GAPDH (setting [5]) it was 17.7 µM; at PEG-3 [2], 9.13 µM; in the experiment with PEG-3 [3] (setting [4]), 10.2 µM; with PEG-3 [3] (setting [5]), 8.07 µM. Also, the IC50 in the experiment on Rat fibroblasts (CREF) (mean of runs) was 8.06 µM; in the experiment on Rat fibroblasts (CREF) (setting [4]), 6.83 µM; with Rat fibroblasts (CREF) (setting [5]) it was 9.29 µM.
Take `NS(=O)(=O)c1ccc(CCNc2nn3c(-c4ccc(F)c(Cl)c4)cnc3s2)cc1`: the IC50 was 14.1 µM in experiment [1]; 12.9 µM with GAPDH (setting [4]); 15.3 µM in the experiment with GAPDH (setting [5]); 2.67 µM at PEG-3 [2]; 2.86 µM with PEG-3 [3] (setting [4]); 2.47 µM with PEG-3 [3] (setting [5]). The IC50 with Rat fibroblasts (CREF) (mean of runs) is > 100 µM (inactive); in the experiment with Rat fibroblasts (CREF) (setting [4]), more than 100 µM; in the experiment with Rat fibroblasts (CREF) (setting [5]) it was more than 100 µM.
Take `Clc1ccccc1/C=C/c1nc(-c2ccccn2)no1`: the IC50 was 1.86 µM in experiment [1]; 3.51 µM in the experiment with GAPDH (setting [4]); less than 0.2 µM in the experiment with GAPDH (setting [5]); 3.68 µM in the experiment on PEG-3 [3] (setting [4]); more than 100 µM in the experiment with PEG-3 [3] (setting [5]); 28 µM in the experiment on Rat fibroblasts (CREF) (mean of runs). The IC50 with Rat fibroblasts (CREF) (setting [4]) worked out at 25.7 µM; in the experiment on Rat fibroblasts (CREF) (setting [5]), 30.3 µM. In addition, the IC50 result on PEG-3 [2] was “inactive”.
Turning to `Cc1ccccc1CNC(=O)C1CCCN(c2nnc(C)c3c(C)n(-c4ccccc4)nc23)C1` (stereo not drawn), the IC50 entry in experiment [1] was “inactive”. The IC50 in the experiment on GAPDH (setting [4]) is 41.3 µM; with GAPDH (setting [5]), 25.2 µM; at PEG-3 [2] it was 10.4 µM; in the experiment with PEG-3 [3] (setting [4]), 14.6 µM; in the experiment on PEG-3 [3] (setting [5]) it was 6.15 µM; with Rat fibroblasts (CREF) (mean of runs), 19.8 µM. The IC50 is 23.9 µM with Rat fibroblasts (CREF) (setting [4]) and 15.6 µM in the experiment on Rat fibroblasts (CREF) (setting [5]).
For `Cc1ccc(C)c(S(=O)(=O)N2CCN(c3ncnc4sccc34)CC2)c1`, the IC50 in experiment [1] is 28.7 µM; in the experiment on GAPDH (setting [4]), 9.4 µM; in the experiment with GAPDH (setting [5]) it was 48 µM; on PEG-3 [2], 2.53 µM; with PEG-3 [3] (setting [4]), 2.58 µM; in the experiment on PEG-3 [3] (setting [5]), 2.47 µM. Moreover, the IC50 in the experiment on Rat fibroblasts (CREF) (mean of runs) is 58.7 µM (inactive); with Rat fibroblasts (CREF) (setting [4]), more than 100 µM; in the experiment on Rat fibroblasts (CREF) (setting [5]), 17.4 µM.
With `COc1ccc(NC(=O)c2cc(-c3ccccn3)nc3ccccc23)cc1S(=O)(=O)N(C)C`, the IC50 result in experiment [1] is “inactive”. The IC50 was more than 100 µM in the experiment with GAPDH (setting [4]); 43.6 µM in the experiment with GAPDH (setting [5]); 0.724 µM on PEG-3 [2]; 1.12 µM with PEG-3 [3] (setting [4]); 0.329 µM in the experiment with PEG-3 [3] (setting [5]); > 100 µM (inactive) in the experiment with Rat fibroblasts (CREF) (mean of runs). The IC50 in the experiment with Rat fibroblasts (CREF) (setting [4]) and in the experiment on Rat fibroblasts (CREF) (setting [5]) was more than 100 µM in each case.
For the compound `CS(=O)(=O)Nc1cccc(NC(=O)C2Cc3c(-c4ccccc4)ccnc3O2)c1` (stereo not drawn), the IC50 result in experiment [1] is “inactive”. Further, the IC50 with GAPDH (setting [4]) was more than 100 µM; in the experiment on GAPDH (setting [5]), 86.7 µM; at PEG-3 [2], 7.38 µM; in the experiment with PEG-3 [3] (setting [4]), 7.17 µM; in the experiment with PEG-3 [3] (setting [5]), 7.59 µM; in the experiment on Rat fibroblasts (CREF) (mean of runs), > 100 µM (inactive). Moreover, the IC50 in the experiment on Rat fibroblasts (CREF) (setting [4]) and in the experiment with Rat fibroblasts (CREF) (setting [5]) was more than 100 µM each time.
Turning to `Cc1cc(C(=O)Nc2cccc(C(=O)O)c2)oc1C`, the IC50 is 11.3 µM in experiment [1]; 6.56 µM in the experiment on GAPDH (setting [4]); 16 µM with GAPDH (setting [5]); 9.01 µM on PEG-3 [2]; 6.77 µM in the experiment on PEG-3 [3] (setting [4]); 11.2 µM with PEG-3 [3] (setting [5]). The results for the IC50 with Rat fibroblasts (CREF) (mean of runs), in the experiment on Rat fibroblasts (CREF) (setting [4]) and with Rat fibroblasts (CREF) (setting [5]) were > 100 µM (inactive), more than 100 µM and more than 100 µM, respectively.
Regarding `Cc1ccc(C(C[N+](=O)[O-])Sc2ccc(N)cc2)cc1` (stereo not drawn), the IC50 in experiment [1] is 18.6 µM; with GAPDH (setting [4]), 21.1 µM; with GAPDH (setting [5]), 16.1 µM; on PEG-3 [2], 8.04 µM; with PEG-3 [3] (setting [4]) it was 9.59 µM; in the experiment on PEG-3 [3] (setting [5]), 6.49 µM. In addition, the figures for the IC50 in the experiment with Rat fibroblasts (CREF) (mean of runs), in the experiment with Rat fibroblasts (CREF) (setting [4]) and with Rat fibroblasts (CREF) (setting [5]) were 62.8 µM (inactive), 25.6 µM and more than 100 µM, respectively.
On to `COc1ccc(/C=C2\SC(=S)N(CCCC(=O)NNC(=O)c3ccccc3O)C2=O)cc1`, for which the IC50 result in experiment [1] is “inactive”. Also, the IC50 with GAPDH (setting [4]) was 21.9 µM; with GAPDH (setting [5]) it was more than 100 µM; at PEG-3 [2], 3.86 µM; in the experiment on PEG-3 [3] (setting [4]), 6.31 µM; with PEG-3 [3] (setting [5]) it was 1.41 µM; with Rat fibroblasts (CREF) (mean of runs), 71.6 µM (inactive). The IC50 with Rat fibroblasts (CREF) (setting [4]) is more than 100 µM; in the experiment with Rat fibroblasts (CREF) (setting [5]) it was 43.3 µM.
For the compound `COC(COC(N)=O)C1=C(N2CC2)C(=O)C(C)=C(N2CC2)C1=O` (stereo not drawn), the IC50 in experiment [1] is 15 µM; with GAPDH (setting [4]), 10.2 µM; in the experiment with GAPDH (setting [5]), 19.8 µM; on PEG-3 [2], 0.938 µM; with PEG-3 [3] (setting [4]) it was 1.29 µM; with PEG-3 [3] (setting [5]), 0.583 µM. Also, the IC50 in the experiment with Rat fibroblasts (CREF) (mean of runs) is 4.51 µM; with Rat fibroblasts (CREF) (setting [4]), 8.05 µM; in the experiment with Rat fibroblasts (CREF) (setting [5]), 0.958 µM.
On to `COc1cc(OC)c2cc(C(=O)N/N=C/c3ccccc3O)[nH]c2c1`, for which the IC50 entry in experiment [1] was “inactive”. The IC50 is 75.1 µM in the experiment on GAPDH (setting [4]); 51.5 µM in the experiment with GAPDH (setting [5]); 4.44 µM on PEG-3 [2]; 4.95 µM in the experiment with PEG-3 [3] (setting [4]); 3.93 µM in the experiment with PEG-3 [3] (setting [5]); 28.8 µM with Rat fibroblasts (CREF) (mean of runs). In addition, the figures for the IC50 with Rat fibroblasts (CREF) (setting [4]) and in the experiment on Rat fibroblasts (CREF) (setting [5]) were 24.8 µM and 32.9 µM, respectively.
As to `CC(=O)OC1(C)CC(C)C(=O)C(C(O)CC2CC(=O)NC(=O)C2)C1` (stereo not drawn), the IC50 in experiment [1] is less than 0.2 µM; in the experiment with GAPDH (setting [4]), less than 0.2 µM; with GAPDH (setting [5]) it was less than 0.2 µM; on PEG-3 [2] it was 0.303 µM; with PEG-3 [3] (setting [4]), 0.221 µM; in the experiment with PEG-3 [3] (setting [5]) it was 0.385 µM. Further, the half-inhibitory concentration (IC50) in the experiment with Rat fibroblasts (CREF) (mean of runs), with Rat fibroblasts (CREF) (setting [4]) and in the experiment with Rat fibroblasts (CREF) (setting [5]) was less than 0.2 µM each time.
Regarding `CC(=O)NC(c1ccc(Cl)cc1)c1ccc2cccnc2c1O` (stereo not drawn), the IC50 result in experiment [1] was “inactive”. The IC50 was 58.8 µM with GAPDH (setting [4]); 56 µM in the experiment on GAPDH (setting [5]); 1.75 µM at PEG-3 [2]; 1.47 µM in the experiment with PEG-3 [3] (setting [4]); 2.04 µM in the experiment with PEG-3 [3] (setting [5]); > 100 µM (inactive) in the experiment on Rat fibroblasts (CREF) (mean of runs). Besides, the IC50 in the experiment with Rat fibroblasts (CREF) (setting [4]) and in the experiment on Rat fibroblasts (CREF) (setting [5]) was more than 100 µM each time.
Consider `CCC(c1nnnn1-c1ccc2c(c1)OCCO2)N1CCC(n2c(=O)[nH]c3ccccc32)CC1` (stereo not drawn), for which the IC50 in experiment [1] was 10.8 µM; in the experiment on GAPDH (setting [4]), 9.08 µM; with GAPDH (setting [5]), 12.6 µM; on PEG-3 [2], 7.33 µM; with PEG-3 [3] (setting [4]), 4.46 µM; in the experiment on PEG-3 [3] (setting [5]) it was 10.2 µM. Further, the figures for the IC50 in the experiment on Rat fibroblasts (CREF) (mean of runs), in the experiment on Rat fibroblasts (CREF) (setting [4]) and with Rat fibroblasts (CREF) (setting [5]) were > 100 µM (inactive), more than 100 µM and more than 100 µM, respectively.
As for `O=C(N/N=C/c1c(O)ccc2ccccc12)c1ccc(CO)nc1`, the IC50 in experiment [1] was > 100 µM (inactive); with GAPDH (setting [4]), more than 100 µM; with GAPDH (setting [5]), more than 100 µM; at PEG-3 [2] it was 3.35 µM; in the experiment on PEG-3 [3] (setting [4]) it was 3.98 µM; in the experiment with PEG-3 [3] (setting [5]) it was 2.72 µM. The values for the IC50 with Rat fibroblasts (CREF) (mean of runs), in the experiment with Rat fibroblasts (CREF) (setting [4]) and in the experiment with Rat fibroblasts (CREF) (setting [5]) were 41.7 µM, 31 µM and 52.5 µM, respectively.
Turning to `CC(=O)c1sc2c(c1OC(=O)c1ccc(Cl)cc1Cl)c(=O)n(-c1ccccc1)c(=S)n2-c1ccccc1`, the IC50 was 4.7 µM in experiment [1]; 2.85 µM in the experiment on GAPDH (setting [4]); 6.56 µM with GAPDH (setting [5]); 10.2 µM on PEG-3 [2]; 11.2 µM in the experiment with PEG-3 [3] (setting [4]); 9.26 µM with PEG-3 [3] (setting [5]). Also, the IC50 with Rat fibroblasts (CREF) (mean of runs) was > 100 µM (inactive); with Rat fibroblasts (CREF) (setting [4]) it was more than 100 µM; in the experiment on Rat fibroblasts (CREF) (setting [5]), more than 100 µM.

The IC50 is the point on the concentration scale where inhibition reaches its midpoint.

Source of the values: PubChem BioAssay AID624167 (Sanford-Burnham Center for Chemical Genomics, 2012).
